Results reported in ChEMBL document CHEMBL1938371, “Discovery of AZD2932, a new Quinazoline Ether Inhibitor with high affinity for VEGFR-2 and PDGFR tyrosine kinases” (Bioorg Med Chem Lett, 2012).
The source made the active and inactive calls. The calls are words filed in the database; no cut-off is given here.

Columns and labels:
[1] = target: Macrophage colony-stimulating factor 1 receptor (Homo sapiens, UniProt P07333); assay: Inhibition of CSF1R phosphorylation by cell based assay
[2] = Chemical stability of the compound at pH 1; type: physicochemical; conditions: buffer
[3] = target: Vascular endothelial growth factor receptor 2 (Homo sapiens) (UniProt P35968); assay: Inhibition of VEGFR2 phosphorylation by cell based assay
[4] = target: Aurora kinase B (Homo sapiens, UniProt Q96GD4); assay: Inhibition of aurora-B
Sequence of Aurora kinase B (Q96GD4 whole entry): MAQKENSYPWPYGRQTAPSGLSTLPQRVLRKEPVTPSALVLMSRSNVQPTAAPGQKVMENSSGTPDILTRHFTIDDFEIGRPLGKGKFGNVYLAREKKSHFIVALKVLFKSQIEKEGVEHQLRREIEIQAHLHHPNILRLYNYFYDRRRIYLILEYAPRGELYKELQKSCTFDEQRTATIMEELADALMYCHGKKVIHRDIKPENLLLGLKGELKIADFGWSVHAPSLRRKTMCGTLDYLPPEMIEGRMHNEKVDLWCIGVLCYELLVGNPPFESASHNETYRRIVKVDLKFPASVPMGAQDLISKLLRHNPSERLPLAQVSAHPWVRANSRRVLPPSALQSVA

[5] = Oral bioavailability in rat; type: ADME, organism-based; conditions: in vivo
[6] = target: T1, Receptor-type tyrosine-protein kinase FLT3 (Homo sapiens, UniProt P36888); assay: Inhibition of FLT3 phosphorylation by cell based assay
T1 sequence (P36888 whole entry): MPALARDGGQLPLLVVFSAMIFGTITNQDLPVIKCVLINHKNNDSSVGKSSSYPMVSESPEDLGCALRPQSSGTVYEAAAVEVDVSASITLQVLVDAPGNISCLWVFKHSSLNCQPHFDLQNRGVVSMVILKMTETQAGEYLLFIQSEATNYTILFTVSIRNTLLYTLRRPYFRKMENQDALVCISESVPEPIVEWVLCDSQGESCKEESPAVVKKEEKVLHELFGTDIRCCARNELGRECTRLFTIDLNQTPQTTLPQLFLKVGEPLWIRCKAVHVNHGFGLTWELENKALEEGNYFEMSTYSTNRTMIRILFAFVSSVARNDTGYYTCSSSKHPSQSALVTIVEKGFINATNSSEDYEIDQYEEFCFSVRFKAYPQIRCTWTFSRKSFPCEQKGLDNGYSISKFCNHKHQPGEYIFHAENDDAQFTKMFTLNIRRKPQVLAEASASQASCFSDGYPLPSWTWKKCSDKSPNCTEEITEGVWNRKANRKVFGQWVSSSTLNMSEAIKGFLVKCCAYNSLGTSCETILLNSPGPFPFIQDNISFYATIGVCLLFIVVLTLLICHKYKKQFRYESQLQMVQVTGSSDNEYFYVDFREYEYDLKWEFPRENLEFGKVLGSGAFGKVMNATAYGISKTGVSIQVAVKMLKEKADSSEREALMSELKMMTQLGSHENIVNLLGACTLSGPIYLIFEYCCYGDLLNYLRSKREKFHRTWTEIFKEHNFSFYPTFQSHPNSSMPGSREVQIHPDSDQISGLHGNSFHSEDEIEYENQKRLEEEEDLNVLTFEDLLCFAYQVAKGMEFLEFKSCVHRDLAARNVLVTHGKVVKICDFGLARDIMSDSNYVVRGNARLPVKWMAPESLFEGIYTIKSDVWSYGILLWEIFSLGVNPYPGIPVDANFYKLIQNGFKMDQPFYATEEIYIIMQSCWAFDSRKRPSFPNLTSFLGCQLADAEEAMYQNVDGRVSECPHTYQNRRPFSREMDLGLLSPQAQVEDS

[7] = target: Platelet-derived growth factor receptor beta (Homo sapiens, UniProt P09619); assay: Inhibition of PDGFRbeta phosphorylation by cell based assay
Sequence of Platelet-derived growth factor receptor beta (P09619 whole entry): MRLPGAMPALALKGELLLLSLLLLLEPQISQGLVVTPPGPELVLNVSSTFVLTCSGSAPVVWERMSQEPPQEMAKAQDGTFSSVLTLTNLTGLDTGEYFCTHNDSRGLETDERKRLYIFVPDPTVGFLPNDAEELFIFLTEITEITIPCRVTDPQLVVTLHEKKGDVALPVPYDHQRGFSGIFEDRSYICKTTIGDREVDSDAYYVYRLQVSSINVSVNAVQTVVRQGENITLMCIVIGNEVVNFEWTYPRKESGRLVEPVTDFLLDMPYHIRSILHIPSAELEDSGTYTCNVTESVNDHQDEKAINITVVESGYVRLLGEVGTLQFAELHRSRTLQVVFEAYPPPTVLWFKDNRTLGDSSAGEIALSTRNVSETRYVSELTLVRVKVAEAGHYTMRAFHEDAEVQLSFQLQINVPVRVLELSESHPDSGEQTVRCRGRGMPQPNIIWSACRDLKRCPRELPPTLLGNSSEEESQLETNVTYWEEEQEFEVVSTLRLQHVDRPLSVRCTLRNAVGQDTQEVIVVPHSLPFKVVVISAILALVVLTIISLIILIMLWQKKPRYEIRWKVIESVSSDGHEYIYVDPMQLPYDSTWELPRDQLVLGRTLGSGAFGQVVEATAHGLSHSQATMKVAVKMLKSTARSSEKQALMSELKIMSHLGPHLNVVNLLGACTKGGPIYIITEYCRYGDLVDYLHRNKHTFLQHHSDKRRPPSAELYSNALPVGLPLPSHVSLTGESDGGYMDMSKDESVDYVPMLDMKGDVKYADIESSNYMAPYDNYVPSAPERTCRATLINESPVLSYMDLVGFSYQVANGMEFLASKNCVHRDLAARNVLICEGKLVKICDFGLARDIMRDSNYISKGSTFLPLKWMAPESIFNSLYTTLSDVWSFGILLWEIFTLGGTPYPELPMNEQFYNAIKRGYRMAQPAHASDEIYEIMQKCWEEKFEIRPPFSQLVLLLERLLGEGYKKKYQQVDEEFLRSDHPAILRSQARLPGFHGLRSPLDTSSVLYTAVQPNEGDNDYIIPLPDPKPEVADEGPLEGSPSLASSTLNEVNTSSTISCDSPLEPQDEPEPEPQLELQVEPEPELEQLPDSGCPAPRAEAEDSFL

[8] = target: Platelet-derived growth factor receptor alpha (Homo sapiens) (UniProt P16234); assay: Inhibition of PDGFRalpha phosphorylation by cell based assay
Sequence of Platelet-derived growth factor receptor alpha (Homo sapiens) (P16234 whole entry): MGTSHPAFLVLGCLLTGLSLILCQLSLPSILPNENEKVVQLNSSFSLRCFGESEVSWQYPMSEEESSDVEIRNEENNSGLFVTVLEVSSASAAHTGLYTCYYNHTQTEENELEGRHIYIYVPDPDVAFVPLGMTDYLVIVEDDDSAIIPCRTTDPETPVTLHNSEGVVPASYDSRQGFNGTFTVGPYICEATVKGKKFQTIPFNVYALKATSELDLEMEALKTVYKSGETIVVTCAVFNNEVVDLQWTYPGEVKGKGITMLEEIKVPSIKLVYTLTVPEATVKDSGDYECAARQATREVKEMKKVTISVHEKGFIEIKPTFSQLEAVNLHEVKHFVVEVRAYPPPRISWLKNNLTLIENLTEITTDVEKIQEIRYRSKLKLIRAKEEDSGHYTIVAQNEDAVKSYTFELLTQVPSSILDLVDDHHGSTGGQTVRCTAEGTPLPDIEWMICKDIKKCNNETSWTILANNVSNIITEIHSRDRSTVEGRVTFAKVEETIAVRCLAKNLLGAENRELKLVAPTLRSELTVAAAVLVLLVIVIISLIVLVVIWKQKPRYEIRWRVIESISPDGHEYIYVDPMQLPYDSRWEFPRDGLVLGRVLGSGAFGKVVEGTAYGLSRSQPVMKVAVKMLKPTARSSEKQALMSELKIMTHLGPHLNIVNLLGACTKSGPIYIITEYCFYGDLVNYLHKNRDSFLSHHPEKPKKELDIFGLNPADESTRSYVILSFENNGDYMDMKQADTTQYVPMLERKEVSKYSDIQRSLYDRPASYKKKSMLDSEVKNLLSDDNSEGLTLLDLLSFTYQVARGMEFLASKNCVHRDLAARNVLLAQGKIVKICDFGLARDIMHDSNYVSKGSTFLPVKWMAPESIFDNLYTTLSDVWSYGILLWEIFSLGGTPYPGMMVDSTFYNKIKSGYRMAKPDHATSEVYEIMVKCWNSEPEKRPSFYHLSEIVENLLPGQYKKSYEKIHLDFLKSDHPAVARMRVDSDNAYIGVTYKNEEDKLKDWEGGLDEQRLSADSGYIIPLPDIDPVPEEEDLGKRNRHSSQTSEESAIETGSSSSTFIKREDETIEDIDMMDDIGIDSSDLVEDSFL

[9] = tested on: Mus musculus; assay: Inhibition of PDGFRalpha phosphorylation in rat C6 cells xenografted in po dosed nude mouse after 6 hrs; type: functional, organism-based
[10] = tested on: Mus musculus; assay: Inhibition of PDGFRalpha phosphorylation in rat C6 cells xenografted in nude mouse at 3 mg/kg, po; type: functional, organism-based; set-up: dose 3 mg/kg; conditions: TDE = time-dependent effect
[11] = target: Mast/stem cell growth factor receptor Kit (Homo sapiens) (UniProt P10721); assay: Inhibition of c-Kit
Sequence of Mast/stem cell growth factor receptor Kit (Homo sapiens) (P10721 whole entry): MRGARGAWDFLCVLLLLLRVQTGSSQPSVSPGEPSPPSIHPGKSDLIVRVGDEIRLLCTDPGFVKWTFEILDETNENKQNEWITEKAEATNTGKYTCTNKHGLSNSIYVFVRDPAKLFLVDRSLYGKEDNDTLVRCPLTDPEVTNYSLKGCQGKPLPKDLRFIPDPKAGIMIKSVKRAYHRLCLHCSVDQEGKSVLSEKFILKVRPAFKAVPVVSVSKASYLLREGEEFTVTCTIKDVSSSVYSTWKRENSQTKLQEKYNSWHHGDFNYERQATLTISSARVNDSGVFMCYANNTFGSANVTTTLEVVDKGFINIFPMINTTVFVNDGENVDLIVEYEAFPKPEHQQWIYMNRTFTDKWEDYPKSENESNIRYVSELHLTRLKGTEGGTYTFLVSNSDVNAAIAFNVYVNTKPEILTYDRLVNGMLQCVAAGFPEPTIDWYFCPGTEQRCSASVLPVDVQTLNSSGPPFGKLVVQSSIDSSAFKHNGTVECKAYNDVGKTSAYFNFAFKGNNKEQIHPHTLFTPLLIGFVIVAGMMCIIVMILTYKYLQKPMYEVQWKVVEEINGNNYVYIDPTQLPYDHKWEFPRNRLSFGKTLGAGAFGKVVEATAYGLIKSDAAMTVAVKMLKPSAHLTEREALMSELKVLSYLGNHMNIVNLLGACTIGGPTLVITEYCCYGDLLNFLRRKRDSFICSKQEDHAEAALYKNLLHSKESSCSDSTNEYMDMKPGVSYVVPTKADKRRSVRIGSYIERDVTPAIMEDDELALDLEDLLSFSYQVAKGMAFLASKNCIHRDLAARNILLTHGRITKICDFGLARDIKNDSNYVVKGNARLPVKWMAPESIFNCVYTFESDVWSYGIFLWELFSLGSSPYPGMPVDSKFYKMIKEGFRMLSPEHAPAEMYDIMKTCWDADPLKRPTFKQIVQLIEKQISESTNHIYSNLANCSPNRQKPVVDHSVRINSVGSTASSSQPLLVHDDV

[12] = Terminal half life in dog at 3 mg/kg, iv; type: ADME, organism-based, Canis lupus familiaris; set-up: dose 3 mg/kg, route intravenous; conditions: in vivo, read-out: beta t1/2 (converted)
[13] = Oral bioavailability in rat at 2.7 mg/kg; type: ADME, organism-based; conditions: in vivo
[14] = Half life in dog at 2.7 mg/kg, po; type: ADME, organism-based, Canis lupus familiaris; set-up: dose 2.7 mg/kg, route oral; conditions: in vivo
[15] = Volume of distribution at steady state in dog at 3 mg/kg, iv; type: ADME, organism-based, Canis lupus familiaris; set-up: dose 3 mg/kg, route intravenous; conditions: in vivo, read-out: Vdss
[16] = Clearance in dog at 10 mg/kg, po; type: ADME, organism-based, Canis lupus familiaris; set-up: dose 10 mg/kg, route oral; conditions: in vivo
[17] = Oral bioavailability in dog at 10 mg/kg; type: ADME, organism-based, Canis lupus familiaris; conditions: in vivo
[18] = Clearance in dog at 3 mg/kg, iv; type: ADME, organism-based, Canis lupus familiaris; set-up: dose 3 mg/kg, route intravenous; conditions: in vivo
[19] = Half life in dog at 3 mg/kg, po; type: ADME, organism-based, Canis lupus familiaris; set-up: dose 3 mg/kg, route oral; conditions: in vivo
[20] = Half life in iv dosed rat; type: ADME, organism-based; conditions: in vivo
[21] = Clearance in rat; type: ADME, organism-based; conditions: in vivo
[22] = tested on: Calu-6; assay: Antitumor activity against human Calu6 cells xenografted in nude mouse assessed as tumor growth inhibition at 50 mg/kg bid; type: functional; conditions: read-out: TGI
[23] = tested on: Calu-6; assay: Antitumor activity against human Calu6 cells xenografted in nude mouse assessed as tumor growth inhibition at 12.5 mg/kg bid; type: functional; conditions: read-out: TGI
[24] = Oral bioavailability in dog at 2 to 5 mg/kg; type: ADME, organism-based, Canis lupus familiaris; conditions: in vivo
[25] = Clearance in rat hepatocytes assessed per million cells; type: ADME, cell-based, Hepatocyte; conditions: read-out: CLH
[26] = Oral bioavailability in rat at 2 to 5 mg/kg; type: ADME, organism-based; conditions: in vivo
[27] = tested on: Rattus norvegicus; assay: Hepatic blood flow in rat at 0.5 to 2 mg/kg; type: ADME, organism-based, Liver; set-up: dose 0.5-2 mg/kg; conditions: in vivo
[28] = tested on: Mus musculus; assay: Inhibition of PDGFRbeta phosphorylation in C6 cells xenografted in nude mouse lungs at 3 to 50 mg/kg bid after 10 hrs by Western blot analysis; conditions: dose mg/kg 3-50
[29] = target: Cytochrome P450 2C9 (Homo sapiens, UniProt P11712); assay: Inhibition of CYP2C9; type: ADME
Sequence of Cytochrome P450 2C9 (P11712 whole entry): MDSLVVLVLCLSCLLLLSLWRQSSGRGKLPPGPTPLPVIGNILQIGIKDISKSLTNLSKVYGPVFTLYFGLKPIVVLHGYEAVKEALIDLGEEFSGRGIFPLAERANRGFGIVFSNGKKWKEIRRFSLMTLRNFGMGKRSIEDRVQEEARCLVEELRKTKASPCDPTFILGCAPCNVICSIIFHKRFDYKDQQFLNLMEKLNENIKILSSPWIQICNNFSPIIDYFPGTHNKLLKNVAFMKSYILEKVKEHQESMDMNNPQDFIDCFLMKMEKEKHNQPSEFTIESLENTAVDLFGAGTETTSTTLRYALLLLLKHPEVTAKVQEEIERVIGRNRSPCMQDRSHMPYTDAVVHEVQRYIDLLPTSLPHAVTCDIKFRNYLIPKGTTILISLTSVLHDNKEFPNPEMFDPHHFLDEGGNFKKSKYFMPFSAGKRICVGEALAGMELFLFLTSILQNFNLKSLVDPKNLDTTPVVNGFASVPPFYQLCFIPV

[30] = Clearance in rat at 2 mg/kg; type: ADME, organism-based; set-up: dose 2 mg/kg; conditions: in vivo
[31] = Clearance in dog at 2 mg/kg; type: ADME, organism-based, Canis lupus familiaris; set-up: dose 2 mg/kg; conditions: in vivo
[32] = tested on: C6; assay: Antitumor activity against rat C6 cells xenografted in nude mouse assessed as tumor growth inhibition at 12.5 to 50 mg/kg bid for 22 days; type: functional; conditions: dose mg/kg 12.5-50
[33] = Volume of distribution at steady state in rat at 2 mg/kg; type: ADME, organism-based; set-up: dose 2 mg/kg; conditions: in vivo, read-out: Vdss
[34] = Half life in rat at 2 mg/kg, po; type: ADME, organism-based; set-up: dose 2 mg/kg, route oral; conditions: in vivo
[35] = tested on: Canis familiaris; assay: Hepatic blood flow in dog at 0.5 to 2 mg/kg; type: ADME, organism-based, Canis lupus familiaris, Liver; set-up: dose 0.5-2 mg/kg; conditions: in vivo
[36] = Fraction unbound in dog serum; type: ADME, cell-free, Canis lupus familiaris
[37] = Volume of distribution at steady state in dog at 2 mg/kg; type: ADME, organism-based, Canis lupus familiaris; set-up: dose 2 mg/kg; conditions: in vivo, read-out: Vdss
[38] = Fraction unbound in human serum; type: ADME, cell-free
[39] = Terminal half life in rat at 2 mg/kg, iv; type: ADME, organism-based; set-up: dose 2 mg/kg, route intravenous; conditions: in vivo, read-out: beta t1/2 (converted)
[40] = tested on: Mus musculus; assay: Inhibition of VEGFR2 phosphorylation in C6 cells xenografted in nude mouse lungs at 3 to 50 mg/kg bid after 10 hrs by Western blot analysis; type: functional; conditions: dose mg/kg 3-50
[41] = tested on: LoVo; assay: Antitumor activity against human LoVo cells xenografted in nude mouse assessed as tumor growth inhibition at 50 mg/kg bid for 22 days; type: functional; conditions: 528 h, read-out: TGI
[42] = target: Voltage-gated inwardly rectifying potassium channel KCNH2 (Homo sapiens, UniProt Q12809); assay: Inhibition of human ERG
[43] = Half life in dog at 2 mg/kg, po; type: ADME, organism-based, Canis lupus familiaris; set-up: dose 2 mg/kg, route oral; conditions: in vivo
[44] = Terminal half life in dog at 2 mg/kg, iv; type: ADME, organism-based, Canis lupus familiaris; set-up: dose 2 mg/kg, route intravenous; conditions: in vivo, read-out: beta t1/2 (converted)

Sequence of Macrophage colony-stimulating factor 1 receptor (P07333 whole entry): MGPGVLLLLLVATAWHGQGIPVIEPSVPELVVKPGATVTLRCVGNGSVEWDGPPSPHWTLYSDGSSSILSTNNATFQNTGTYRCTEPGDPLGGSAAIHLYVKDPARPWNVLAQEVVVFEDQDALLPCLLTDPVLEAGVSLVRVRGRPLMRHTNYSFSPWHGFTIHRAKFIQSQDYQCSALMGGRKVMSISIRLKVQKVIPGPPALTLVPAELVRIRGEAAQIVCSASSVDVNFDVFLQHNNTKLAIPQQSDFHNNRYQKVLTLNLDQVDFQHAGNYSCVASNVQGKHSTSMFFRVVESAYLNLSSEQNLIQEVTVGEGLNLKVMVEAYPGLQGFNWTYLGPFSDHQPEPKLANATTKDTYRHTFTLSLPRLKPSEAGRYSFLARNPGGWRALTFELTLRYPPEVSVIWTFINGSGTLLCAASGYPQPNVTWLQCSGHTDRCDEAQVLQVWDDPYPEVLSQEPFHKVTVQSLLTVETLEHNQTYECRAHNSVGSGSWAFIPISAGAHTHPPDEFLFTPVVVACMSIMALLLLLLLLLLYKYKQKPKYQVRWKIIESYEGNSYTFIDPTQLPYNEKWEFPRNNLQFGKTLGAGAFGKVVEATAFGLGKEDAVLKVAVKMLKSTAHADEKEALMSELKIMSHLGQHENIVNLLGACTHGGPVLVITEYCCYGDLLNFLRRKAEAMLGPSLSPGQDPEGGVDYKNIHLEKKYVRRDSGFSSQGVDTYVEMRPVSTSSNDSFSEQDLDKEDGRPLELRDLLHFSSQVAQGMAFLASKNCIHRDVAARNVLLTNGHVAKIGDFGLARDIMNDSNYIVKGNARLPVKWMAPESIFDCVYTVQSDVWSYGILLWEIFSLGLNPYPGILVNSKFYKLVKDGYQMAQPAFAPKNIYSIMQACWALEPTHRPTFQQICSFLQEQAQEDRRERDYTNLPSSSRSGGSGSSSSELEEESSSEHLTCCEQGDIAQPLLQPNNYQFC

SMILES: COc1cc2ncnc(Nc3cnn(CC(=O)Nc4ccc(N(C)C)cc4)c3)c2cc1OC
- IC50 [1]: 600 nM
- Stability [2]: 0.1 days
- IC50 [3]: 101 nM
- IC50 [4]: > 10 nM
- bioavailability [5]: < 20%
- IC50 [6]: 4 nM
- IC50 [7]: 6 nM
- inhibition [8]: Active

SMILES: COc1cc2ncnc(Oc3ccc(CC(=O)Nc4cnn(C(C)C)c4)cc3)c2cc1OC [listing 1 of 2 here]
- inhibition [9]: Dose-dependent effect
- inhibition [10]: tde
- INH [8]: 2 nM

SMILES: COc1cccc(NC(=O)Cn2cc(Nc3ncnc4cc(OC)c(OC)cc34)cn2)c1
- IC50 [1]: > 900 nM
- Stability [2]: 0.1 days
- IC50 [3]: 25 nM
- IC50 [4]: > 10 nM
- bioavailability [5]: < 20%
- IC50 [6]: > 20 nM
- IC50 [7]: 10 nM
- inhibition [8]: Active

SMILES: CCn1cc(NC(=O)Cc2cc(Oc3ccnc4cc(OC)c(OC)cc34)n[nH]2)cn1
- inhibition [11]: inactive
- IC50 [1]: > 1000 nM
- IC50 [3]: > 10000 nM
- IC50 [6]: > 1000 nM
- IC50 [7]: > 1000 nM
- inhibition [8]: Active

SMILES: COc1cc2ncnc(Oc3ccc(CC(=O)Nc4cnn(C(C)C)c4)cc3)c2cc1OC.O=P(O)(O)O
- half-life [12]: 4.7 h
- bioavailability [13]: > 90%
- half-life [14]: 4.3 h
- Vd [15]: 0.7 L/kg
- CL/F [16]: 5.2 mL/min/kg
- bioavailability [17]: > 90%
- clearance [18]: 1.7 mL/min/kg
- half-life [19]: 6.8 h

SMILES: COc1cc2ncnc(Nc3cnn(CC(=O)Nc4cccc(F)c4)c3)c2cc1OC
- IC50 [1]: > 1000 nM
- Stability [2]: 0.1 days
- IC50 [3]: 51 nM
- IC50 [4]: < 0.2 nM
- bioavailability [5]: < 20%
- IC50 [6]: 4 nM
- IC50 [7]: 10 nM
- inhibition [8]: Active

SMILES: COc1cccc(NC(=O)Cn2cc(Oc3ncnc4cc(OC)c(OCCN5CCCCC5)cc34)cn2)c1
- IC50 [1]: 400 nM
- Stability [2]: 0.1 days
- IC50 [3]: 31 nM
- half-life [20]: 0.4 h
- bioavailability [5]: < 20%
- IC50 [6]: 10 nM
- IC50 [7]: 3 nM
- clearance [21]: 75 mL/min/kg
- inhibition [8]: Active

SMILES: COc1cc2ncnc(Oc3ccc(CC(=O)Nc4cnn(C(C)C)c4)cc3)c2cc1OC [listing 2 of 2 here]
- inhibition in vivo at 50 mg/kg [22]: 81%
- inhibition in vivo at 12.5 mg/kg [23]: 72%
- bioavailability [24]: 23%
- hepatocyte CLint [25]: 3.5 µL/min/1e6 cells
- bioavailability [26]: 34%
- QH [27]: 6%
- inhibition (INH) [28]: 60%
- IC50 [29]: 8000 nM
- clearance [30]: 8.9 mL/min/kg
- clearance [31]: 3.3 mL/min/kg
- TGI [32]: 64%
- Vd [33]: 0.8 L/kg
- half-life [34]: 6 h
- QH [35]: 9%
- fraction unbound [36]: 0.07
- Vd [37]: 0.9 L/kg
- fraction unbound [38]: 0.033
- half-life [39]: 1.3 h
- inhibition (INH) [40]: 60%
- inhibition in vivo at 50 mg/kg [41]: 67%
- IC50 [42]: 137000 nM
- half-life [43]: 6.8 h
- half-life [44]: 4.2 h
